Source: paper doi:10.1101/2022.06.29.498065v2 (biorxiv, 2022)

Target: KFDV NS5 (Kyasanur Forest disease virus, UniProt D7RF80)
Test: biochemical

Sequence of KFDV NS5 (D7RF80 2518-3410 limits assumed): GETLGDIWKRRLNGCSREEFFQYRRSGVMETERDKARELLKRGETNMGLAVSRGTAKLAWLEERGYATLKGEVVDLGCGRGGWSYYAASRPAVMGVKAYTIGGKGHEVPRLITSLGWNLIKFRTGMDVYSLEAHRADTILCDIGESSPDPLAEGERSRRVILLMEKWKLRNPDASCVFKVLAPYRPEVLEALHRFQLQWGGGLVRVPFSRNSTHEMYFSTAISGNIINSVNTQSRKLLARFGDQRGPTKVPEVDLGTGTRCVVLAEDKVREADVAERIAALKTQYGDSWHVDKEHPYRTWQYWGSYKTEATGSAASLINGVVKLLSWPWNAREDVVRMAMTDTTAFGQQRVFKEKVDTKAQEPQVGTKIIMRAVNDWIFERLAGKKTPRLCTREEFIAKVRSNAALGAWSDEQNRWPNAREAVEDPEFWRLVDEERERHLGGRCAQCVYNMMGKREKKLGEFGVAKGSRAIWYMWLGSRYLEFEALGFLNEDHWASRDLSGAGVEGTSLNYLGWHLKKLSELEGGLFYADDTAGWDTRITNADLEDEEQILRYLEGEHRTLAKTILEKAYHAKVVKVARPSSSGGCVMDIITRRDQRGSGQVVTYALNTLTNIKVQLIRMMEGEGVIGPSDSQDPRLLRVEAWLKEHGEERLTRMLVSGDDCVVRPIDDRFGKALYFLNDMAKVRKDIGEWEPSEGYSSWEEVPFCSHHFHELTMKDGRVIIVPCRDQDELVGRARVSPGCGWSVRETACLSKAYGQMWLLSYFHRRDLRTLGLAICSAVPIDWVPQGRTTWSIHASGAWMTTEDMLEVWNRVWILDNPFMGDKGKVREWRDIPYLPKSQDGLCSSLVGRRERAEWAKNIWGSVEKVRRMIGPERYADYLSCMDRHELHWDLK

| Compound | IC50 |
| --- | --- |
| CC(C)OC(=O)[C@H](C)N[P@](=O)(OC[C@H]1O[C@@H](n2ccc(=O)[nH]c2=O)[C@](C)(F)[C@@H]1O)Oc1ccccc1 [Sofosbuvir, L-Alanine, N-[[P(S),2’R]-2’-deoxy-2’-fluoro-2’-methyl-P-phenyl-5’-uridylyl]-,1-methyl ethyl ester] | 3.45 ± 0.012 µM |
| C[C@@]1(F)[C@H](O)[C@@H](COP(=O)(O)OP(=O)(O)OP(=O)(O)O)O[C@H]1n1ccc(=O)[nH]c1=O [sofosbuvir triphosphate, β-D-2’-deoxy-2’-fluoro-2’-C-methyluridine 5’-triphosphate] | 3.73 ± 0.033 µM |
